Values joined by “and” are separate entries in the source; they are usually repeats but may differ in a detail not shown here. Equal values may be shown once. Toxic doses and inconclusive results are not listed. No stated cut-off is given here; in the data, active means T/C of 150% or more; inactive means T/C below 125%.
Tested on: L1210 leukemia ip in BDF1 mice, survival T/C
Experiment: NCI In Vivo Anticancer Drug Screen. Data for tumor model L1210 Leukemia (intraperitoneal) in B6D2F1 (BDF1) mice
Settings: endpoint: mean survival time, higher = longer survival
Summary of the method: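 Survival endpoint. Drug-treated group vs vehicle group, expressed as T divided by C. Tumor passaged by transplantation.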

[1] = dose: 12.5 mg/kg/injection, schedule: Q01DX009 (ip), vehicle: Klucel (hydroxypropylcellulose) (HPC)
[2] = dose: 25.0 mg/kg/injection, schedule: Q01DX009 (ip), vehicle: Klucel (hydroxypropylcellulose) (HPC)
[3] = dose: 100.0 mg/kg/injection, schedule: Q01DX001 (ip), vehicle: saline
[4] = dose: 200.0 mg/kg/injection, schedule: Q01DX001 (ip), vehicle: saline
[5] = dose: 400.0 mg/kg/injection, schedule: Q01DX001 (ip), vehicle: saline
[6] = dose: 100.0 mg/kg/injection, schedule: Q01DX001 (ip), vehicle: Klucel (hydroxypropylcellulose) (HPC)
[7] = dose: 100.0 mg/kg/injection, schedule: Q01DX009 (ip), vehicle: Klucel (hydroxypropylcellulose) (HPC)
[8] = dose: 100.0 mg/kg/injection, schedule: Q04DX003 (ip), vehicle: Klucel (hydroxypropylcellulose) (HPC)
[9] = dose: 200.0 mg/kg/injection, schedule: Q01DX001 (ip), vehicle: Klucel (hydroxypropylcellulose) (HPC)
[10] = dose: 200.0 mg/kg/injection, schedule: Q01DX009 (ip), vehicle: Klucel (hydroxypropylcellulose) (HPC)
[11] = dose: 200.0 mg/kg/injection, schedule: Q04DX003 (ip), vehicle: Klucel (hydroxypropylcellulose) (HPC)
[12] = dose: 400.0 mg/kg/injection, schedule: Q01DX001 (ip), vehicle: Klucel (hydroxypropylcellulose) (HPC)
[13] = dose: 400.0 mg/kg/injection, schedule: Q01DX009 (ip), vehicle: Klucel (hydroxypropylcellulose) (HPC)
[14] = dose: 400.0 mg/kg/injection, schedule: Q04DX003 (ip), vehicle: Klucel (hydroxypropylcellulose) (HPC)
[15] = dose: 100.0 mg/kg/injection, schedule: Q01DX009 (ip), vehicle: saline with Tween-80

Measured: T/C

COc1cccc(OC#N)c1OC
inactive: dose: 12.5 mg/kg/injection, schedule: Q01DX001 (ip), vehicle: Klucel (hydroxypropylcellulose) (HPC) 93 % of control | [1] 95 % of control | dose: 12.5 mg/kg/injection, schedule: Q04DX003 (ip), vehicle: Klucel (hydroxypropylcellulose) (HPC) 96 % of control | dose: 25.0 mg/kg/injection, schedule: Q01DX001 (ip), vehicle: Klucel (hydroxypropylcellulose) (HPC) 98 % of control | [2] 97 % of control | dose: 25.0 mg/kg/injection, schedule: Q04DX003 (ip), vehicle: Klucel (hydroxypropylcellulose) (HPC) 104 % of control | dose: 50.0 mg/kg/injection, schedule: Q01DX001 (ip), vehicle: Klucel (hydroxypropylcellulose) (HPC) 93 % of control | dose: 50.0 mg/kg/injection, schedule: Q04DX003 (ip), vehicle: Klucel (hydroxypropylcellulose) (HPC) 94 % of control

CCOc1cc(/C=N/N2CCN(/N=C/c3ccc(O)c(OCC)c3)CC2)ccc1O
inactive: [3] 117 % of control | [4] 94 % of control | [5] 88 % of control

OCc1ccccc1Cn1ccnc1
inactive: [6] 111 % of control | [7] 97 % of control and 105 % of control | dose: 100.0 mg/kg/injection, schedule: Q04DX002 (ip), vehicle: Klucel (hydroxypropylcellulose) (HPC) 102 % of control and 103 % of control | [8] 105 % of control | [9] 103 % of control | [10] 94 % of control and 87 % of control | dose: 200.0 mg/kg/injection, schedule: Q04DX002 (ip), vehicle: Klucel (hydroxypropylcellulose) (HPC) 97 % of control and 88 % of control | [11] 111 % of control | [12] 99 % of control | [13] 94 % of control and 96 % of control | dose: 400.0 mg/kg/injection, schedule: Q04DX002 (ip), vehicle: Klucel (hydroxypropylcellulose) (HPC) 97 % of control and 100 % of control | [14] 110 % of control

CN(C)c1ccc(C(=C(C#N)C#N)c2ccc(N(C)C)cc2)cc1
inactive: [7] 98 % of control | [8] 95 % of control | [10] 98 % of control | [11] 101 % of control | [13] 102 % of control | [14] 101 % of control

CCSc1nc2c([nH]1)c(=S)n(C)c(=O)n2C
inactive: [3] 96 % of control | dose: 100.0 mg/kg/injection, schedule: Q01DX009 (ip), vehicle: saline 100 % of control | dose: 100.0 mg/kg/injection, schedule: Q04DX003 (ip), vehicle: saline 109 % of control | [4] 112 % of control | dose: 200.0 mg/kg/injection, schedule: Q01DX009 (ip), vehicle: saline 89 % of control | dose: 200.0 mg/kg/injection, schedule: Q04DX003 (ip), vehicle: saline 98 % of control | [5] 95 % of control | dose: 400.0 mg/kg/injection, schedule: Q01DX009 (ip), vehicle: saline 103 % of control | dose: 400.0 mg/kg/injection, schedule: Q04DX003 (ip), vehicle: saline 98 % of control

CNS(=O)(=O)c1ccccc1C=C(c1ccccc1)c1ccccc1
inactive: dose: 100.0 mg/kg/injection, schedule: Q01DX001 (ip), vehicle: steriod suspending solution 92 % of control | dose: 200.0 mg/kg/injection, schedule: Q01DX001 (ip), vehicle: steriod suspending solution 114 % of control | dose: 400.0 mg/kg/injection, schedule: Q01DX001 (ip), vehicle: steriod suspending solution 102 % of control

Cl/N=C(/c1ccccc1)c1ccc(Cl)cc1
inactive: [8] 105 % of control | [11] 102 % of control | [14] 104 % of control

CC(C)CCC[C@@H](C)[C@H]1CC[C@H]2[C@@H]3CC=C4C(C)(C)C(=O)CC[C@]4(C)[C@H]3CC[C@]12C
inactive: dose: 100.0 mg/kg/injection, schedule: Q01DX001 (sc), vehicle: steriod suspending solution 97 % of control | dose: 200.0 mg/kg/injection, schedule: Q01DX001 (sc), vehicle: steriod suspending solution 98 % of control | dose: 400.0 mg/kg/injection, schedule: Q01DX001 (sc), vehicle: steriod suspending solution 97 % of control

CC(=O)NC(C)(S)C(=O)O (stereo not drawn)
inactive: [3] 103 % of control | [4] 96 % of control | [5] 107 % of control

c1ccc(-c2c(-c3ccccc3)c(-c3ccccc3)c(-c3ccc(Oc4ccc(-c5c(-c6ccccc6)c(-c6ccccc6)c(-c6ccccc6)c(-c6ccccc6)c5-c5ccccc5)cc4)cc3)c(-c3ccccc3)c2-c2ccccc2)cc1
inactive: dose: 100.0 mg/kg/injection, schedule: Q01DX001 (ip), vehicle: saline with Tween-80 92 % of control | dose: 200.0 mg/kg/injection, schedule: Q01DX001 (ip), vehicle: saline with Tween-80 92 % of control | dose: 400.0 mg/kg/injection, schedule: Q01DX001 (ip), vehicle: saline with Tween-80 100 % of control

NC(=O)C1C(=O)OC2CCCCC21 (stereo not drawn)
inactive: [3] 92 % of control | [4] 87 % of control | [5] 97 % of control

CC(=O)OCc1c(COC(C)=O)c(-c2ccc(Cl)cc2)n2c1CCC2
inactive: [1] 95 % of control | [2] 102 % of control | dose: 50.0 mg/kg/injection, schedule: Q01DX009 (ip), vehicle: Klucel (hydroxypropylcellulose) (HPC) 117 % of control

COc1ccc(OC)c(NC(=O)Nc2ccc(SC)cc2)c1
inactive: [7] 96 % of control | [10] 90 % of control | [13] 98 % of control

Cc1ccccc1NC(=O)N(O)C1(C#N)CCCCC1
inactive: [3] 91 % of control | [4] 93 % of control | [5] 93 % of control

O=C(Nc1cc(C(F)(F)F)cc(C(F)(F)F)c1)Nc1ccc(Oc2ccccc2Cl)c(S(=O)(=O)O)c1
inactive: dose: 100.0 mg/kg/injection, schedule: Q04DX003 (ip), vehicle: saline sonified 117 % of control | dose: 200.0 mg/kg/injection, schedule: Q04DX003 (ip), vehicle: saline sonified 115 % of control | dose: 400.0 mg/kg/injection, schedule: Q04DX003 (ip), vehicle: saline sonified 121 % of control

O=C(O)c1cc(-c2ccc3cc4c(cc3c2)OCO4)nc2ccccc12
inactive: dose: 75.0 mg/kg/injection, schedule: Q01DX001 (ip), vehicle: saline 97 % of control | dose: 150.0 mg/kg/injection, schedule: Q01DX001 (ip), vehicle: saline 101 % of control | dose: 300.0 mg/kg/injection, schedule: Q01DX001 (ip), vehicle: saline 93 % of control

NCC1OC(n2cnc3c(N)ncnc32)C(O)C1O (stereo not drawn)
inactive: dose: 50.0 mg/kg/injection, schedule: Q01DX001 (ip), vehicle: carboxymethylcellulose (CMC) 98 % of control | dose: 100.0 mg/kg/injection, schedule: Q01DX001 (ip), vehicle: carboxymethylcellulose (CMC) 102 % of control | dose: 200.0 mg/kg/injection, schedule: Q01DX001 (ip), vehicle: carboxymethylcellulose (CMC) 107 % of control | dose: 400.0 mg/kg/injection, schedule: Q01DX001 (ip), vehicle: carboxymethylcellulose (CMC) 109 % of control

CC(=O)Nc1ccc(Cl)nc1
inactive: [7] 98 % of control | [8] 94 % of control | [10] 92 % of control | [11] 101 % of control | [13] 93 % of control | [14] 91 % of control

OCc1cnc[nH]1
inactive: dose: 3.0 mg/kg/injection, schedule: Q04DX002 (ip), vehicle: saline 123 % of control | dose: 6.0 mg/kg/injection, schedule: Q04DX002 (ip), vehicle: saline 97 % of control | dose: 12.0 mg/kg/injection, schedule: Q04DX002 (ip), vehicle: saline 94 % of control | dose: 25.0 mg/kg/injection, schedule: Q04DX002 (ip), vehicle: saline 97 % of control and 121 % of control | dose: 50.0 mg/kg/injection, schedule: Q04DX002 (ip), vehicle: saline 105 % of control

COC(=O)C(CSCSC)NC(=O)Nc1ccccc1C (stereo not drawn)
inactive: [15] 102 % of control | dose: 200.0 mg/kg/injection, schedule: Q01DX009 (ip), vehicle: saline with Tween-80 90 % of control | dose: 400.0 mg/kg/injection, schedule: Q01DX009 (ip), vehicle: saline with Tween-80 97 % of control

Nc1ncnc2nc(-c3cc(Cl)c(OCc4ccccc4)c(Cl)c3)[nH]c12
inactive: [6] 100 % of control | [9] 89 % of control | [12] 92 % of control

CCCCN(CCCC)CN(CCCC)CCCC
inactive: dose: 25.0 mg/kg/injection, schedule: Q01DX009 (ip), vehicle: saline with Tween-80 97 % of control | dose: 50.0 mg/kg/injection, schedule: Q01DX009 (ip), vehicle: saline with Tween-80 100 % of control | [15] 100 % of control | dose: 100.0 mg/kg/injection, schedule: Q04DX002 (ip), vehicle: saline 95 % of control | dose: 200.0 mg/kg/injection, schedule: Q04DX002 (ip), vehicle: saline 95 % of control

CSc1nc(Cl)cc(Sc2nc(N)nc3nc[nH]c23)n1
inactive: dose: 100.0 mg/kg/injection, schedule: Q01DX Z (ip), vehicle: methylcellulose (MC) 110 % of control

From PubChem BioAssay AID248 (DTP/NCI, 2004)
